Laboratory results taken from patent US20260167541A1, “BIOCIDAL CONTROL IN AQUEOUS MEMBRANE SEPARATION SYSTEMS” (Albemarle Corporation, priority 2023, published 2026).

Columns and labels:
Aerobic bacteria = experiment: Types of microbes at RO membrane after treatment (membrane autopsy): aerobic bacteria; format: cell-based; conditions: on RO membrane after 30 days of exposure to the biocide
Description: (§1) Marsh water was fed into a storage tank via a 1200-foot long (365 m) hose. A biocide was added to the hose at a point 20 feet (6.1 m) before the hose connection to the storage tank. Water was fed from the storage tank to a reverse osmosis (RO) system equipped with an ultrafiltration (UF) membrane upstream of an RO membrane. In this system, the UF membrane was a non-protected membrane and the RO membrane was a protected membrane. An oxidation-reduction potential (ORP) electrode was in the water at a point upstream of and near the RO membrane, and the ORP electrode was connected to an ORP controller unit (ORP electrode: RD2, Hach Company). Measurements from the ORP were monitored, and the reducing agent was pumped into the RO system downstream of the ORP electrode as needed as indicated by the ORP reading from the ORP electrode. […]
(§2) The water was sampled at various times upstream of and near the UF membrane, and the water was also sampled at various times upstream of and near the RO membrane. […] Functionality of the RO membrane, types of microbes at RO membrane after treatment, biocide efficacy on microbes in water, and biocide efficacy for biofilm growth were determined. […]

Yeast/mold = experiment: Types of microbes at RO membrane after treatment (membrane autopsy): yeast/mold; format: cell-based; conditions: on RO membrane after 30 days of exposure to the biocide
Description: as §1, §2

microbes in water = experiment: Biocide efficacy on microbes in water (planktonic biocidal reduction, marsh water); format: cell-based
Description: Marsh water was fed into a storage tank via a 1200-foot long (365 m) hose. A biocide was added to the hose at a point 20 feet (6.1 m) before the hose connection to the storage tank. Water was fed from the storage tank to a reverse osmosis (RO) system equipped with an ultrafiltration (UF) membrane upstream of an RO membrane. In this system, the UF membrane was a non-protected membrane and the RO membrane was a protected membrane. An oxidation-reduction potential (ORP) electrode was in the water at a point upstream of and near the RO membrane, and the ORP electrode was connected to an ORP controller unit (ORP electrode: RD2, Hach Company). Measurements from the ORP were monitored, and the reducing agent was pumped into the RO system downstream of the ORP electrode as needed as indicated by the ORP reading from the ORP electrode.
The biocides tested were bleach, 1,3-dibromo-5,5-dimethylhydantoin (Br2DMH; Albemarle Corporation), and an aqueous solution formed from bromine chloride and sulfamic acid containing over 50,000 ppm of active halogen having a pH in the range of 13 to 14 (BrCl/sulfamic acid; STABROM® 909 biocide, Albemarle Corporation). The reducing agent used with each biocide was […].
The water was sampled at various times upstream of and near the UF membrane, and the water was also sampled at various times upstream of and near the RO membrane. The duration of testing for each biocide was approximately 30 days. Functionality of the RO membrane, types of microbes at RO membrane after treatment, biocide efficacy on microbes in water, and biocide efficacy for biofilm growth were determined.
For the data in Table 3, the water was sampled upstream of and near the UF membrane, and upstream of and near the RO membrane The data in Table 3 are an average of samples from several days for planktonic biocidal reduction.

biofilm = experiment: Biofilm coupon test with modified Robbins device (ATP, RLU); format: cell-based, bacteria; conditions: water upstream of and near the RO membrane; average of 3 or 4 coupons
Description: as §1, §2

[1] = untreated water to RO feed water

With `CC1(C)C(=O)N(Br)C(=O)N1Br` [Br2DMH, 1,3-dibromo-5,5-dimethylhydantoin] the Aerobic bacteria rating (Aerobic bacteria) was “High (10,000 to 1,000,000)”, the Yeast/mold rating (Yeast/mold) was “Low (0 to 100)” and the “Log reduction, total (untreated to RO)” value (microbes in water; [1]) was 2.1. For the same compound, the “Reduction, total (untreated to RO)” value (microbes in water; [1]) was 99.2%, the RO feed water (microbes in water; water sampled upstream of and near the RO membrane, average of samples from several days) was 2.2 log cfu/mL and the UF feed water (microbes in water; water sampled upstream of and near the UF membrane, average of samples from several days) was 3.1 log cfu/mL. The “ATP on Polyamide coupon” value (biofilm) was 5825 RLU.
